In ChEMBL document CHEMBL1148037, “Effect of Fungal Natural Products in an Agrobacterium tumefaciens Potato Disc Assay” (1994) one finds Activity data, which are given here for 16 molecules.

Calls of active or inactive are those of the source. The calls are words filed in the database; no cut-off is given here.

The test system of experiment [1] is Agrobacterium tumefaciens. In words: Antitumor activity against Agrobacterium tumefaciens B6-induced crown-gall tumor formation in potato assessed as tumor induction at 25 ug/disk after 12 days at 27 degC by potato disk assay relative to control. Format: functional.
Experiment [2] relates to Brochothrix thermosphacta. The experiment can be described thus: Antibacterial activity against Microbacterium thermosphactum at 50 to 500 ug/disk by paper-disk-plate technique. Format: functional, organism-based.
Experiment [3] relates to Chaetomium. In words: Antifungal activity against Chaetomium at 50 to 500 ug/disk by paper-disk-plate technique. Format: functional, organism-based.
Experiment [4] concerns Enterobacter cloacae. The experiment can be described thus: Antibacterial activity against Enterobacter cloacae at 50 to 500 ug/disk by paper-disk-plate technique. It counts as functional, organism-based.
For experiment [5], the system named is Agrobacterium tumefaciens. In words: Antitumor activity against Agrobacterium tumefaciens B6-induced crown-gall tumor formation in potato assessed as tumor induction at 5 ug/disk after 12 days at 27 degC by potato disk assay relative to control. It counts as functional.
Experiment [6] concerns Escherichia coli. In words: Antibacterial activity against Escherichia coli at 50 to 500 ug/disk by paper-disk-plate technique. Format: functional, organism-based.
Experiment [7] relates to Aspergillus flavus. The experiment can be described thus: Antifungal activity against Aspergillus flavus at 50 to 500 ug/disk by paper-disk-plate technique. It counts as functional, organism-based.
Experiment [8] has as its system Agrobacterium tumefaciens. In words: Antibacterial activity against Agrobacterium tumefaciens at 50 to 500 ug/disk by paper-disk-plate technique. Format: functional, organism-based.
In experiment [9] the test system is Bacillus cereus. The experiment can be described thus: Antibacterial activity against Bacillus cereus at 50 to 500 ug/disk by paper-disk-plate technique. Format: functional, organism-based.
Experiment [10] deals with Bacillus subtilis. The experiment can be described thus: Antibacterial activity against Bacillus subtilis at 50 to 500 ug/disk by paper-disk-plate technique. It counts as functional, organism-based.
The test system of experiment [11] is Curvularia lunata. In words: Antifungal activity against Curvularia lunata at 50 to 500 ug/disk by paper-disk-plate technique. It counts as functional, organism-based.
In experiment [12] the test system is Agrobacterium tumefaciens. In words: Antitumor activity against Agrobacterium tumefaciens B6-induced crown-gall tumor formation in potato assessed as tumor induction at 10 ug/disk after 12 days at 27 degC by potato disk assay relative to control. It counts as functional.
In experiment [13] the test system is Citrobacter freundii. In words: Antibacterial activity against Citrobacter freundii at 50 to 500 ug/disk by paper-disk-plate technique. It counts as functional, organism-based.
Experiment [14] deals with Agrobacterium tumefaciens. In words: Antitumor activity against Agrobacterium tumefaciens B6-induced crown-gall tumor formation in potato assessed as tumor induction at 50 ug/disk after 12 days at 27 degC by potato disk assay relative to control. It counts as functional.

Take `CCCCCc1cccc(=O)o1`: the Activity in experiment [1] is -35.5%.

On to `CO[C@]12c3c(C)cc(O)c4c(=O)occ(c34)C(=O)[C@H]1[C@]13COC(=O)c4c(O)cc(C)c(c41)C(=O)[C@H]2[C@@H]3OC(C)=O`, for which the result in experiment [2], in experiment [3], in [4], in [6], in [7] and in [8] was inactive. For the same molecule, the result in [9], in experiment [10], in [11] and in experiment [13] was inactive. Also, the Activity was -67% in experiment [5], -95% in experiment [1], -74% in experiment [12] and -94% in experiment [14].

As for `CC(=C\C(=O)O)/C=C(\C)C[C@H](C)CCCC[C@H]1OC(=O)[C@@H]1CO` [ANTIBIOTIC 1233A], the Activity in experiment [1] was -39%.

For `C[C@H]1CCC/C=C/[C@@H]2C[C@H](O)C[C@H]2[C@H](O)/C=C/C(=O)O1` [BREFELDIN A], the Activity in experiment [1] is reported as -62%.

Regarding `CC[C@@]1(O)C(=O)OCc2c1cc1n(c2=O)Cc2cc3ccccc3nc2-1` [CAMPTOTHECIN], the Activity in experiment [1] was -100%.

Take `CC[C@H]1C2[C@H]([C@@H](C)c3c[nH]c4ccccc34)NC(=O)[C@@]23C(=O)/C=C\C(=O)[C@H](O)/C(C)=C\[C@@H](C)C/C=C/[C@H]3[C@@H]2O[C@]12C` (some centres undefined) [CHAETOGLOBOSIN K]: the outcome in [2], in [3], in [4], in experiment [6], in experiment [7] and in experiment [8] was inactive. In addition, the outcome in [9], in experiment [10], in [11] and in experiment [13] was inactive. Also, the Activity in [5] is on record as -74%; in experiment [1], -94%; in experiment [12] it was -97%; in [14] it was -100%.

For the molecule `CC1=C2C(=CO[C@H](C)[C@H]2C)C(O)=C(C(=O)O)C1=O` [CITRININ], the Activity in experiment [1] is given as -26%.

In the case of `C[C@H]1CCC[C@H](C[C@H]2Cc3cc(O)cc(O)c3C(=O)O2)O1` [CLADOSPORIN], the Activity in [5] was -14%; in experiment [1] it was -79%; in experiment [12], -16%; in [14], -90%.

Regarding `CC[C@@H]1CCc2occ(CO)c(=O)c2[C@H]1O` [DIPLODIOL], the result in experiment [2], in experiment [3], in experiment [4], in [6], in [7] and in experiment [8] was inactive. In addition, the outcome in experiment [9], in [10], in experiment [11] and in experiment [13] was inactive. For the same molecule, the Activity is -70% in experiment [5], -96.3% in experiment [1], -73% in experiment [12] and -75% in [14].

As for `CCCCCC[C@@H]1O[C@]23O[C@H]1CC[C@H]2[C@@H](O)CC[C@H]3O` [KONINGININ A], the Activity in [1] was determined as 75%.

As to `CCCCCC[C@@H](O)[C@H]1CCC2=C(O1)[C@@H](O)CCC2=O` [KONINGININ B], in [1], the Activity is given as 1%.

As to `C[C@@H]1C/C=C/CCCCC(=O)Cc2cc(O)cc(O)c2C(=O)O1` [MONOCILLIN IV], the result in [2], in experiment [3], in experiment [4], in experiment [6], in experiment [7] and in experiment [8] was inactive. The result in experiment [9], in [10], in experiment [11] and in experiment [13] was inactive. The Activity in [5] is -8%; in experiment [1], -78%; in experiment [12], -63%; in experiment [14], -75%.

In the case of `O=C1C=C2C(=CCOC2O)O1` (centres undefined) [PATULIN], the Activity in experiment [1] is recorded as -66%.

Turning to `CC(C)=C1Oc2c(ccc3c2COC(C)(O)C3)C1=O` (centres undefined) [PERGILLIN], in experiment [1], the Activity is given as -68.9%.

On to `C[C@@H]1C[C@H]2O[C@@H]2/C=C\C=C\C(=O)Cc2c(Cl)c(O)cc(O)c2C(=O)O1` [RADICICOL], for which the Activity was -76% in experiment [5], -75% in experiment [1], -94% in experiment [12] and -100% in experiment [14].

Take `O=C(O)/C=C/CCCCCCCCC(=O)O` [TRAUMATIC ACID]: the Activity in experiment [1] was 28.4%.
